# Source: ChEMBL document CHEMBL4513149, “CO-ADD screening of MMV (CH) - MMV compounds” (2021)
# Assays:
# [1] = test system: HEK293; experiment: cells; assay type: functional; conditions: Homo sapiens, ATCC CRL1573, HEK293; ASSAY_TEST Inhibition of Cell Viability; detection method Resazurin; Fluorescence (ex560/em590); MEDIA DMEM with 10% FBS; plate type 384well; TC; CORNING #3712; time 18 hr
# [2] = test system: Staphylococcus aureus; conditions: ASSAY_TEST Inhibition of Bacterial Growth; detection method Absorption (OD600); MEDIA CAMHB; plate type 384well; NBS; CORNING #3640; time 18 hr
# Description: Antibacterial activity against Staphylococcus aureus MRSA ATCC 43300 (CO-ADD:GP_020); MIC in CAMBH media, using NBS plates, by OD(600)
# [3] = test system: Escherichia coli; conditions: ASSAY_TEST Inhibition of Bacterial Growth; detection method Absorption (OD600); MEDIA CAMHB; plate type 384well; NBS; CORNING #3640; time 18 hr
# Description: Antibacterial activity against Escherichia coli ATCC 25922 (CO-ADD:GN_001); MIC in CAMBH media using NBS plates, by OD(600)
# [4] = test system: Klebsiella pneumoniae; conditions: ASSAY_TEST Inhibition of Bacterial Growth; detection method Absorption (OD600); MEDIA CAMHB; plate type 384well; NBS; CORNING #3640; time 18 hr
# Description: Antibacterial activity against Klebsiella pneumoniae MDR ATCC 70063 (CO-ADD:GN_003); MIC in CAMBH media using NBS plates, by OD(600)
# [5] = test system: Pseudomonas aeruginosa; conditions: ASSAY_TEST Inhibition of Bacterial Growth; detection method Absorption (OD600); MEDIA CAMHB; plate type 384well; NBS; CORNING #3640; time 18 hr
# Description: Antibacterial activity against Pseudomonas aeruginosa ATCC 27853 (CO-ADD:GN_042); MIC in CAMBH media using NBS plates, by OD(600)
# [6] = test system: Acinetobacter baumannii; conditions: ASSAY_TEST Inhibition of Bacterial Growth; detection method Absorption (OD600); MEDIA CAMHB; plate type 384well; NBS; CORNING #3640; time 18 hr
# Description: Antibacterial activity against Acinetobacter baumannii ATCC 19606 (CO-ADD:GN_034); MIC in CAMBH media using NBS plates, by OD600
# [7] = test system: Candida albicans; conditions: ASSAY_TEST Inhibition of Fungal Growth; detection method Absorption (OD530); plate type 384well; NBS; CORNING #3640
# Description: Antifungal activity against Candida albicans ATCC 90028 (CO-ADD:FG_001); MIC in YNB media using NBS plates, by OD630
# [8] = test system: Cryptococcus neoformans
# Description: Antifungal activity against Cryptococcus neoformans H99 ATCC 208821 (CO-ADD:FG_002); MIC in YNB media using NBS plates, by Resazurin OD(600-570)
SMILES,CC50 [1] [µM],MIC [2] [µM],MIC [3],MIC [4] [µM],MIC [5] [µM],MIC [6] [µM],MIC [7] [µM],MIC [8] [µM]
C[C@H]1COc2c(N3CCN(C)CC3)c(F)cc3c(=O)c(C(=O)O)cn1c23.C[C@H]1COc2c(N3CCN(C)CC3)c(F)cc3c(=O)c(C(=O)O)cn1c23.O [LEVOFLOXACIN],> 10,0.625,<=0.0781 uM,2.5,0.625,2.5,>10,> 10
COc1cc(NC(C)CCCN)c2ncccc2c1.O=P(O)(O)O.O=P(O)(O)O (stereo unspecified) [PRIMAQUINE PHOSPHATE],> 10,10,>10 µM,>10,>10,>10,>10,> 10
